What was measured:
mice [1] = test: Antimuscarinic activity in vivo: mydriasis; conditions: maximum dose 100 mg/kg, p.o.
Experimental: (§1) Eszopiclone was evaluated for antimuscarinic activity in vivo.

conscious dogs = test: Dose escalation safety study, cardiovascular and respiratory parameters after acute intravenous administration; conditions: acute intravenous, 3, 5 and 12 mg/kg
Experimental: To establish the safety of eszopiclone, a dose escalation study was carried out. Cardiovascular and respiratory parameters were evaluated in conscious dogs following acute intravenous administration of (R)-, (S)- or racemic zopiclone at three doses (3, 5 and 12 mg/kg).

[2] = system: benzodiazepine receptor complex; conditions: cited from earlier work
mice [3] = test: Antagonism of oxotremorine induced salivation; assay type: in vivo; conditions: doses up to 300 mg/kg, p.o.
Experimental: as §1

CN1CCN(C(=O)OC2c3nccnc3C(=O)N2c2ccc(Cl)cn2)CC1 (racemic) [racemic zopiclone, zopiclone]
mydriasis (mice [1]): did not produce mydriasis
Blood gases and blood chemistries (pH, pCO2, pO2, hematocrit, and lactate) (conscious dogs): remained unaffected
cardiotoxicity by electrocardiogram (ECG) (conscious dogs): No evidence of cardiotoxicity
effect on blood pressure (conscious dogs): dose dependent, transient decreases
effect on heart rate (conscious dogs): compensatory increase
binding to the benzodiazepine receptor complex [2]: binds to the benzodiazepine receptor complex
antagonism of oxotremorine induced salivation (mice [3]): neither (R)-, (S)-, nor racemic zopiclone significantly antagonized

— patent publication US7776858B2, “Methods of treatment of chronic pain using eszopiclone” (Sepracor Inc., priority 2004, dated 2010)
